Measurements: patent US20060046966A1, “Antipicornaviral compounds and compositions, their pharmaceutical uses, and materials for their synthesis” (Agouron Pharmaceuticals, Inc., priority 1998, published 2006)

Columns and labels:
[1] = test system: Coxsackievirus type B3 (CVB-3); assay: Anticoxsackieviral cell culture assay, CVB-3; assay type: cell-based; settings: H1-HeLa, 24 h
Description: (§1) Coxsackievirus types A-21 (CAV-21) and B3 (CVB-3) were purchased from American Type Culture Collection (ATCC, Rockville, Md.). Virus stocks were propagated and antiviral assays were performed in H1-HeLa cells (ATCC). Cells were grown in minimal essential medium with 10% fetal bovine serum (Life Technologies, Gaithersburg, Md.).
(§2) The ability of compounds to protect cells against either CAV-21 or CVB-3 infection was measured by the XTT dye reduction method. This method is described in Weislow et al., J. Natl. Cancer Inst. 1989, vol. 81, 577-586. H1-HeLa cells were infected with CAV-21 or CVB-3 at a multiplicity of infection (m.o.i.) of 0.025 or 0.075, respectively, or mock-infected with medium only. H1-HeLa cells were plated at 4×10^4 cells per well in a 96-well plate and incubated with appropriate concentrations of the test compound. One day (CVB-3) or two days (CAV-21) later, XTT/PMS was added to test plates and the amount of formazan produced was quantified spectrophotometrically at 450/650 nm. The EC50 was calculated as the concentration of compound that increased the formazan production in compound-treated, virus-infected cells to 50% of that produced by compound-free, uninfected cells. The 50% cytotoxic dose (CC50) was calculated as the concentration of compound that decreased formazan production in compound-treated, uninfected cells to 50% of that produced in compound-free, uninfected cells. The therapeutic index TI) was calculated by dividing the CC50 by the EC50.
(§3) The compounds were tested against control compounds WIN 54954 (obtained from Sterling-Winthrop Pharmaceuticals), Pirodavir (obtained from Janssen Pharmaceuticals), and Pleconaril (prepared according to Diana et al., J. Med. Chem. 1995, 38, 1355).

[2] = test system: Echovirus type 11 (EV 11); assay: Anti-echoviral cell culture assay, EV 11; assay type: cell-based; settings: Enterovirus B, MRC5, 96 h
Description: Echovirus type 11 (EV 11) and enterovirus type 70 (EV 70) were purchased from ATCC (Rockville, Md.). Virus stocks were propagated and antiviral assays were performed in MRC-5 cells (ATCC). Cells were grown in minimal essential medium with 10% fetal bovine serum (Life Technologies, Gaithersburg, Md.).
The ability of compounds to protect cells against either EV 11 or EV 70 infection was measured by the XTT dye reduction method (Weislow et al., J. Natl. Cancer Inst. 1989, vol. 81, 577-586). MRC-5 cells were infected with EV 11 or EV 70 at an m.o.i. of 0.003 or 0.004, respectively, or mock-infected with medium only. Infected or uninfected cells were added at 1×10^4 cells per well and incubated with appropriate concentrations of compound. Four days later, XTT/PMS was added to test plates, and the amount of formazan produced was quantified spectrophotometrically at 450/650 nm. The EC50 was calculated as the concentration of compound that increased the formazan production in compound-treated, virus-infected cells to 50% of that produced by compound-free, uninfected cells. The 50% cytotoxic dose (CC50) was calculated as the concentration of compound that decreased formazan production in compound-treated, uninfected cells to 50% of that produced in compound-free, uninfected cells. The therapeutic index (TI) was calculated by dividing the CC50 by the EC50.
The compounds were tested against control compounds Pirodavir (obtained from Janssen Pharmaceuticals) and Pleconaril (prepared according to Diana et al., J. Med. Chem. 1995, vol. 38, 1355). Antiviral data obtained for the test compounds against strain EV 11 and EV 70 are shown below in Table 5.

[3] = test system: Coxsackievirus type A-21 (CAV-21); assay: Anticoxsackieviral cell culture assay, CAV-21; assay type: cell-based; settings: H1-HeLa, 48 h
Description: as §1, §2, §3

HRV-14 = assay: Antirhinoviral H1-HeLa cell culture assay, HRV-14; assay type: cell-based, human rhinovirus; settings: Rhinovirus B, HRV14, H1-HeLa, Table 3; HRV serotype-14; H1-HeLa cells; XTT; read-out: EC50
Description: In this cell protection assay, the ability of compounds to protect cells against HRV infection was measured by the XTT dye reduction method, which is described in Weislow et al., J. Natl. Cancer Inst. 1989, vol. 81, 577-586.
H1-HeLa cells were infected with HRV-14 at a multiplicity of infection (m.o.i.) of 0.13 (virus particles/cell) or mock-infected with medium only. Infected or mock-infected cells were resuspended at 8×10^5 cells per mL, and incubated with appropriate concentrations of the compounds to be tested. Two days later, XTT/PMS was added to test plates and the amount of formazan produced was quantified spectrophotometrically at 450/650 nm. The EC50 value was calculated as the concentration of compound that increased the percentage of formazan production in compound-treated, virus-infected cells to 50% of that produced by compound-free, mock-infected cells. The 50% cytotoxic dose (CC50) was calculated as the concentration of compound that decreased the percentage of formazan produced in compound-treated, mock-infected cells to 50% of that produced by compound-free, mock-infected cells. The therapeutic index (TI) was calculated by dividing the CC50 value by the EC50 value.
All strains of human rhinovirus (HRV) for use in this assay were purchased from American Type Culture Collection (ATCC), except for HRV serotype-14 (produced from the infectious cDNA clone constructed by Dr. Robert Rueckert, Institute for Molecular Virology, University of Wisconsin, Madison, Wis.). HRV stocks were propagated and viral assays were performed in H1-HeLa cells (ATCC). Cells were grown in minimal essential medium with 10% fetal bovine serum, available from Life Technologies (Gaithersburg, Md.).
The compounds were tested against control compounds WIN 51711, WIN 52084, and WIN 54954 (obtained from Sterling-Winthrop Pharmaceuticals), Pirodavir (obtained from Janssen Pharmaceuticals), and Pleconaril (prepared according to the method described in Diana et al., J. Med. Chem 1995, vol. 38, 1355). Antiviral data obtained for the test compounds are shown in Tables 1 and 3, where all data are for HRV serotype-14 unless otherwise noted in parentheses.

H1-HeLa cells = assay: Cytotoxicity in uninfected H1-HeLa cells (anticoxsackieviral assay, XTT); assay type: cell-based; settings: 50% cytotoxic dose, Table 4
Description: as §2

SMILES | EC50 [1] | EC50 [2] | EC50 [3] | EC50 (HRV-14) | CC50 (H1-HeLa cells)
Cc1cc(CCCOc2c(C)cc(-c3noc(C(F)(F)F)n3)cc2C)on1 [Pleconaril, reference compound] | > 10 µM | 0.16 µM | 0.09 µM | 0.01 µM | 
Cc1cc(CCCCCOc2c(Cl)cc(C3=NCCO3)cc2Cl)on1 [WIN 54954] |  |  |  |  | > 100 µM
